One assay relates to Farage CRBN^-/- cells. The assay can be described thus: Cell proliferation in CRBN^-/- (knock out) cells, 5 days. It is filed as cell-based. The following applies: 120 h. An excerpt: (§1) The activated B-cell (ABC) and MYC/BCL2 double expressor cell lines SU-DHL-2 and RIVA, the germinal center B-cell (GCB) and MYC/BCL2 double hit cell lines (and expressing BCL6) Karpas-422, SU-DHL-10, WSU-DLCL2, and the primary mediastinal B-cell lymphoma (PMBL) cell line Farage were infected with a CAS9 expressing lentivirus construct to generate the control CAS9 expressing cells. The Cas9 cells had wild type cereblon expression (CRBN^WT).
(§2) To generate the cereblon knock out cells (CRBN^−/−), the individual control CAS9 cells were infected with a construct expressing a subgenomic single guide RNA (sgRNA). Western blot analysis confirmed the absence of cereblon protein in the CRBN^−/− cells, relative to the levels of the housekeeping protein β-tubulin. The CRBN^WT and CRBN^−/− cells were treated with increasing concentrations of Compound 1 for five days.

Assay [1] deals with Karpas-422 CRBN^-/- cells. The description is as above. It is filed as cell-based. The following applies: Homo sapiens, 120 h.
Source text: as §1, §2

A further assay deals with RIVA CRBN^-/- cells. Described as above. It counts as cell-based. The following applies: 120 h.
Source text: as §1, §2

The subject of the next assay is SU-DHL10 CRBN^-/- cells. The description is as above. The following applies: Homo sapiens, 120 h. It is filed as cell-based.
Source text: as §1, §2

A further assay concerns SU-DHL2 CRBN^-/- cells. Described as above. The following applies: Homo sapiens, SU-DHL-2, 120 h. It is filed as cell-based.
Source text: as §1, §2

The next assay relates to WSU-DLCL2 CRBN^-/- cells. Described as above. It is filed as cell-based. The following applies: Homo sapiens, WSUDLCL2, 120 h.
Source text: as §1, §2

Another assay concerns the target Ikaros (Homo sapiens, UniProt Q13422+Q96SW2). The assay can be described thus: Ikaros degradation in anti-CD3 stimulated PBMCs by flow cytometry. It is filed as cell-based. The procedure: Purified PBMCs from four healthy donors were plated on anti-CD3-coated plates to stimulate T cells and subsequently treated with either DMSO (control) or Compound 1 at various concentrations. The ability of Compound 1 to promote the degradation of Ikaros was assessed over time by flow cytometry (FIG. 12).
(In flow cytometry, cells or beads pass a laser one at a time.)

The next assay deals with MyoF system. Kind of assay: BioMAP MyoF system (lung fibroblasts). It is filed as cell-based, human. The following applies: 0.01, 0.1, 1, and 10 μM. Here is the method: The activity of Compound 1 was profiled in a panel of human primary cell-based assays, modeling complex tissue and disease biology of organs (vasculature, immune system, skin, lung) and general tissue biology using the BioMAP System (DiscoveRx, Fremont, Calif.).
The BioMAP System consists of twelve primary human monoculture or co-culture systems in stimulated and non-stimulated control conditions (FIG. 4, panel A). When tested at 0.01, 0.1, 1, and 10 μM, Compound 1 mediated changes in key biomarker activities. Specifically, the profiles for Compound 1 reflected selective anti-inflammatory and immunomodulatory impact on monocyte (LPS) and T cell dependent B cell activation responses (BT). Treatment with Compound 1 led to a decrease in interleukin 8 (IL-8), interleukin 1a (IL-1a), secreted prostaglandin E2 (sPGE2), and secreted tumor necrosis factor alpha (sTNFα) in the LPS system, which consisted of peripheral blood mononuclear cells (PBMCs) and endothelial cells. Furthermore, secreted IgG (sIgG), secreted interleukin 17A (sIL-17A), secreted interleukin 17F (sIL-17F), and sTNFα decreased, whereas secreted interleukin 2 (sIL-2) and secreted interleukin 6 (sIL-6) increased, in the BT system, which was comprised of B cells and PBMCs.

The test system of another assay is 11 DLBCL cell lines. The assay can be described thus: Integrated proteomics (TMT-MS) and RNA-Seq profiling. It is filed as cell-based. The following applies: 0.04 μM; 12, 24 and 48 hours. The procedure: Biomarkers associated with the cytotoxic effects of Compound 1 treatment in DLBCL, such as signaling and regulatory pathways, were determined by integrative network analysis using transcriptomic and proteomic profiling. The approach consisted of a network flow optimization using a knowledge driven backbone network with protein interactions and regulatory associations similar to what was described previously (Basha, Mauer, Simonovsky, Shpringer, & Yeger-Lotem, 2019; Gosline, Spencer, Ursu, & Fraenkel, 2012).
Briefly, differential expression analysis and differential protein abundance analysis at different timepoints were integrated using a model framework. […]
To begin, cell line sensitivity to Compound 1 was determined by flow cytometry for 40 cell line models using DRAQ7 and Annexin V staining to quantify the reduction in proliferation and induction of apoptosis after five days of compound treatment. […] Sensitivity was calculated by calculating the ratio of (AUCapoptosis/AUClive cells), where smaller ratios indicated resistance, and larger ratios indicated sensitivity. […]

One may read the IC50 as the concentration at which inhibition is half-maximal. Low values mean greater potency in that assay, high ones weaker potency in that assay.

Each structure is given as a SMILES string. Where only a bound is given, the exact number is not on record here.

Chain of Ikaros (Q13422 whole entry): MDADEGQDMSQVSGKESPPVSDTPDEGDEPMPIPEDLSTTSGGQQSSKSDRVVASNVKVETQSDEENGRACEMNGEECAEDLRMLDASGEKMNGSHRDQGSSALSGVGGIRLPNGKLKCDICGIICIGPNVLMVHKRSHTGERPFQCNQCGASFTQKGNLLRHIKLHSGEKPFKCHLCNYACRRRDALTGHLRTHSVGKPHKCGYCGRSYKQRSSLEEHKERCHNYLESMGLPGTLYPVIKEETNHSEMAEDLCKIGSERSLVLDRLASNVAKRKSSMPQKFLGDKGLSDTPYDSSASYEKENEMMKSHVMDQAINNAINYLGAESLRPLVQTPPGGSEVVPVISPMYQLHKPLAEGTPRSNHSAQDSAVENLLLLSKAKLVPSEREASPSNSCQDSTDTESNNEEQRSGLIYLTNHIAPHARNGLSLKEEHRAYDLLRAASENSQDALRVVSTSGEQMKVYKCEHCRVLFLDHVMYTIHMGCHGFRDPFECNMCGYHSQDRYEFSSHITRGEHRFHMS
Chain of Ikaros (Q96SW2 whole entry): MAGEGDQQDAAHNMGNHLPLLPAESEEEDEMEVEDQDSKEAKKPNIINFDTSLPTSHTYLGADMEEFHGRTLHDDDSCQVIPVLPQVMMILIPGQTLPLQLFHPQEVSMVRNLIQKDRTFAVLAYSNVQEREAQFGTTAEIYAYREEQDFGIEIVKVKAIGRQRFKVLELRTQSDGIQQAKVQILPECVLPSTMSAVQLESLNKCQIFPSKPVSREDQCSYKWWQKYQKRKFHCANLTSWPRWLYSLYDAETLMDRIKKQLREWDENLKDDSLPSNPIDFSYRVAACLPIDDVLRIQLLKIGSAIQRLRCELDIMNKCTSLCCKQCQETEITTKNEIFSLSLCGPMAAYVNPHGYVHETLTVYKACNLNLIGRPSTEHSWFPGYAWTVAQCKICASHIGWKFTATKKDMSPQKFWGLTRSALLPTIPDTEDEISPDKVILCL
Chain of Ikaros (Q16531 whole entry partner): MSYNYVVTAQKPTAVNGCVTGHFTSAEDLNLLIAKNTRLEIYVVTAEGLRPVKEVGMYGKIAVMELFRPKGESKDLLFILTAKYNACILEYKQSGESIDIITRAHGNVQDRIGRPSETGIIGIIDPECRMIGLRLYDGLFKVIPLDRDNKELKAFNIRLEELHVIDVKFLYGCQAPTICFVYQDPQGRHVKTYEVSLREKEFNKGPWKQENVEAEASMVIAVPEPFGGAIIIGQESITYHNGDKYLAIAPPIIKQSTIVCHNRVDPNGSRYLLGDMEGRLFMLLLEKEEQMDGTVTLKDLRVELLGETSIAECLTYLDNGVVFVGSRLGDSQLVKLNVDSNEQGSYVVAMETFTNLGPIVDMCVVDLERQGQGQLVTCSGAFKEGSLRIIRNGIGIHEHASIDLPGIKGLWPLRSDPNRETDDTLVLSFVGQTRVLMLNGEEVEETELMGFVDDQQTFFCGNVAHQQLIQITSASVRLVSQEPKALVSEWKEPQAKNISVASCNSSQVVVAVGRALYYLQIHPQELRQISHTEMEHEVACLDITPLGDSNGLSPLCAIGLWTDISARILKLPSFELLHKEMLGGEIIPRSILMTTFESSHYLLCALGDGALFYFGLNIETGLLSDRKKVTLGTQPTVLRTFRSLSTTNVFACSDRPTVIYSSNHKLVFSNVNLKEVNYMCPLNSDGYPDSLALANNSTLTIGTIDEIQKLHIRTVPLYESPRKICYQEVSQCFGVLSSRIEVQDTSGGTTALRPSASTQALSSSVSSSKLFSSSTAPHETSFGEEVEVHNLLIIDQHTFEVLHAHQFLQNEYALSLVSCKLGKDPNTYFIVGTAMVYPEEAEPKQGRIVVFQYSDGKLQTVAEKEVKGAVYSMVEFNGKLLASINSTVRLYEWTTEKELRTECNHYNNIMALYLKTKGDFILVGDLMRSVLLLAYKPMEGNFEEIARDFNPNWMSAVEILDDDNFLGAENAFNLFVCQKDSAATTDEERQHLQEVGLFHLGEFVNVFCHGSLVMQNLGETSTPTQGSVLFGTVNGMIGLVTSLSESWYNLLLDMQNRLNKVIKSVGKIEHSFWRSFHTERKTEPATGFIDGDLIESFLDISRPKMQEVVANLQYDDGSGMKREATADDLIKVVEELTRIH

With `O=C1CC[C@H](N2C(=O)c3cccc(NCc4ccc(CN5CC(N6CCOCC6)C5)cc4F)c3C2=O)C(=O)N1` [Compound 1, (S)-2-(2,6-dioxopiperidin-3-yl)-4-((2-fluoro-4-((3-morpholinoazetidin-1-yl)methyl)benzyl)amino)isoindoline-1,3-dione], the IC50 (in the assay on Farage CRBN^-/- cells; in assay [1]; in the assay with RIVA CRBN^-/- cells; in the assay on SU-DHL10 CRBN^-/- cells; in the assay with SU-DHL2 CRBN^-/- cells; with WSU-DLCL2 CRBN^-/- cells) was more than 10 µM throughout. Also, the “duration of Ikaros degradation after a single treatment” value on Ikaros is on record as “maintained up to 7 days”. On Ikaros (four healthy donors), the “Ikaros in PBMCs (percentage of Ikaros positive cells)” value is “concentration-dependent degradation”. Also, in the assay on MyoF system, the “collagen-I and -III expression” value is on record as “compelling inhibition”. Also, in the assay with MyoF system, the “plasminogen activator inhibitor-1 (PAI-1) expression” value is reported as “slight inhibition”. The “genes associated with cell cycle and transcription” value in the assay on 11 DLBCL cell lines is reported as “global down-regulation”. Besides, in the assay with 11 DLBCL cell lines, the “genes associated with interferon signaling, cytokine/chemokine signaling, apoptosis, cell adhesion, cell-cell junction, GPCRs, extracellular matrix” value is on record as “up-regulation”.

Source of the values: patent publication US20210116454A1, “METHODS FOR TREATING A HEMATOLOGICAL CANCER AND THE USE OF COMPANION BIOMARKERS FOR 2-(2,6-DIOXOPIPERIDIN-3-YL)-4-((2-FLUORO-4-((3-MORPHOLINOAZETIDIN-1-YL)METHYL)BENZYL)AMINO)ISOINDOLINE-1,3-DIONE” (CELGENE CORPORATION, priority 2019, published 2021).
